For one test, the target named is T1, human SSTR2 (Homo sapiens, UniProt P30874).
T1 construct: expressed in transfected cells; host or cells: CHO(dhfr-) cells, clone SSTR2-HS5-9, plasmid pAC01 (vector pAKKO-111)
The test is described as follows: cAMP accumulation inhibiting activity in SSTR2 expressing CHO cells (forskolin stimulated). In kind it is cell-based. The settings on record: forskolin 10 μM, CHO cells SSTR2-HS5-9; read-out: ED50, inhibition of intracellular cAMP accumulation, SSTR2. The method, then:
(§1) For measuring the intracellular accumulations of cyclic adenosine 3′,5′-monophosphate (cAMP), the human somatostatin receptor expressing cell lines SSTR2-HS5-9, SSTR3-15-19, SSTR4-1-2 and SSTR5-32-4 respectively described in Reference Example 2 (3), Reference Example 3 (3), Reference Example 4 (3) and Reference Example 5 (3) were multiplied on 24-well plates until confluency. Said cells were washed with two 1-ml portions of medium A [Dulbecco-'s modified Eagle's medium (DMEM), 20 mM 2-[4-(2-hydroxyethyl)-1-piperazinyl]ethanesulfonic acid (HEPES) (pH. 7.5), 0.2% BSA, 0.2 mM 3-isobutyl-1-methylxanthine (IBMX)] and then 400 μl of medium A was added to each well and incubation was carried out at 37° C. for 1 hour. To each well were added 50 μl of a hCS-15 or hCS-17 solution (each diluted to a concentration 10 times the final concentration with medium A) and 50 μl of a forskolin solution (final concentration: 10 μM), and incubation was carried out at 37° C. for 30 minutes. The cells were washed with two 1-ml portions of medium A and then 500 μl of medium A and 100 μL of 20% aqueous perchloric acid solution were added to each well, followed by standing at 4° C. for 20 minutes for cell lysis. […] The amount of cAMP contained in this extract was determined using an Amersham's kit (cAMP EIA system).

The target of test [1] is T2, human SSTR5 (Homo sapiens, UniProt P35346).
T2 construct: expressed in transfected cells; host or cells: CHO(dhfr-) cells, clone SSTR5-32-4, plasmid pA-1-11-SSTR5 (vector pAKKO-111)
The test is described as follows: cAMP accumulation inhibiting activity in SSTR5 expressing CHO cells (forskolin stimulated). In kind it is cell-based. The settings on record: forskolin 10 μM, CHO cells SSTR5-32-4; read-out: ED50, inhibition of intracellular cAMP accumulation, SSTR5. The method, then: as §1

Another test deals with T3, human SSTR3 (Homo sapiens, UniProt P32745).
T3 construct: expressed in transfected cells; host or cells: CHO(dhfr-) cells, clone SSTR3-15-19, plasmid pA-1-11-SSTR3 (vector pAKKO-111)
Kind of test: cAMP accumulation inhibiting activity in SSTR3 expressing CHO cells (forskolin stimulated). In kind it is cell-based. The settings on record: forskolin 10 μM, CHO cells SSTR3-15-19; read-out: ED50, inhibition of intracellular cAMP accumulation, SSTR3. As for the experimental part:
as §1

For test [2], the target named is T2, human SSTR5. Kind of test: [125I]-somatostatin binding inhibition, SSTR5 CHO cell membrane fraction. The settings on record: 25° C., 60 minutes. The method, then:
CHO(dhfr^−) cells (1×10^6 cells) were cultured on HAM F12 medium containing 10% fetal bovine serum in a dish with a diameter of 8 cm for 24 hours. Into these cells was introduced 10 μg of the human SSTR5 cDNA expression plasmid pA-1-11-SSTR5 obtained as described above in (2) by the calcium phosphate method (Cell Phect Transfection Kit; Pharmacia). At 24 hours after transfection, the medium was exchanged for DMEM containing 10% dialyzed fetal bovine serum, and cells forming a colony on this medium (namely DHFR^+ cells) were selected. Further, the cells selected were treated by the limiting dilution method for cloning from a single cell, and the cells thus cloned were measured for their somatostatin receptor protein expression ability by the binding assay described in Reference Example 1 (3). In this manner, a cell line with high somatostatin-binding activity. SSTR5-32-4, was selected. […]
The membrane fractions prepared in Reference Example 6 were each diluted to 3 μg/ml with assay buffer. […] After filtration, the radioactivity of [^125I]-somatostatin remaining on the filter paper was measured. For each test substance, the binding inhibition percentage (%) was calculated according to the formula: PBM=(B−NSB)/(B0−NSB)×100 (where PBM: percent maximum binding; B: radioactivity when the test sample is added; B0: maximum bound radioactivity; NSB: non-specifically bound radioactivity). […]

Where a SMILES comes first, the peptide text is derived from it. Bridges are numbered along the chain shown (N, C = ends).

T2 sequence (P35346 whole entry): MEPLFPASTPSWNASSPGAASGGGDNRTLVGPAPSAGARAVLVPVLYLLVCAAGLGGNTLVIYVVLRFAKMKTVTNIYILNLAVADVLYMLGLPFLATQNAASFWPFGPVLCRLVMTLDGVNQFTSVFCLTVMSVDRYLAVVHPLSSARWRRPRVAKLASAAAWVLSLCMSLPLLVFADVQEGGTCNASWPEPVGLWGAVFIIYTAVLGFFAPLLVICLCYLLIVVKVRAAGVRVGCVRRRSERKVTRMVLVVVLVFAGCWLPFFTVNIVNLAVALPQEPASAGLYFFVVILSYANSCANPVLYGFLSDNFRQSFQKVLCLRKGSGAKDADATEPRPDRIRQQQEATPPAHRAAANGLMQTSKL
T3 sequence (P32745 whole entry): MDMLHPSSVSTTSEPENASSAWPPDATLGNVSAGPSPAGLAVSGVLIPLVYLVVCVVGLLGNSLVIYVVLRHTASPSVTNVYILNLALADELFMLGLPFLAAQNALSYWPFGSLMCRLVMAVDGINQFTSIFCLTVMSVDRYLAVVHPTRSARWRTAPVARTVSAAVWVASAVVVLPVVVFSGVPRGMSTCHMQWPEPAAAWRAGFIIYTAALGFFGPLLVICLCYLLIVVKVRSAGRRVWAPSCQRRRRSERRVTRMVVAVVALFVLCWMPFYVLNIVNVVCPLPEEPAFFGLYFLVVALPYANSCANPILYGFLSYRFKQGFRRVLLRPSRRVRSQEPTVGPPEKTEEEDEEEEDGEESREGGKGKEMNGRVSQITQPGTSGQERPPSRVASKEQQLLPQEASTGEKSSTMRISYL
T1 sequence (P30874 whole entry): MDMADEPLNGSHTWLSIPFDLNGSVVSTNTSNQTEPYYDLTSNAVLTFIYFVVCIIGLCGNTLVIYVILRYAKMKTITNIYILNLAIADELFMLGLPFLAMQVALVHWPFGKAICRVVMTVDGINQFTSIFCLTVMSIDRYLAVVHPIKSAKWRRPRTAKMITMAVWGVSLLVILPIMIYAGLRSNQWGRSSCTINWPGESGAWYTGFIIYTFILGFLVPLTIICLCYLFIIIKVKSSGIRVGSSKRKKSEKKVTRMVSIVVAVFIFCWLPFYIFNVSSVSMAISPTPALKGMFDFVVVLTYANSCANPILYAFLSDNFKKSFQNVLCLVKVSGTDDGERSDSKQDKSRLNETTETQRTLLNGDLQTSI

Consider `CSCC[C@H](N)C(=O)N1CCC[C@H]1C(=O)N[C@H]1CSSC[C@@H](C(=O)N[C@@H](CCCCN)C(=O)O)NC(=O)[C@H](CO)NC(=O)[C@H](CO)NC(=O)[C@H](Cc2ccccc2)NC(=O)[C@H]([C@@H](C)O)NC(=O)[C@H](CCCCN)NC(=O)[C@H](Cc2c[nH]c3ccccc23)NC(=O)[C@H](Cc2ccccc2)NC(=O)[C@H](Cc2ccccc2)NC(=O)[C@H](CC(N)=O)NC(=O)[C@H](CCCNC(=N)N)NC1=O` [hCS-15] (H-MPCRNFFWKTFSSCK-OH; disulfide 3-14; N-terminus and C-terminus assumed), for which the results for the EC50 at human SSTR2, at human SSTR5 [1] and on human SSTR3 were 7 nM, 0.2 nM and 1 nM, respectively. Moreover, the IC50 at human SSTR5 [2] came to 0.6 nM.
On to `CSCC[C@H](NC(=O)[C@H](CCCNC(=N)N)NC(=O)[C@@H](N)CC(=O)O)C(=O)N1CCC[C@H]1C(=O)N[C@H]1CSSC[C@@H](C(=O)N[C@@H](CCCCN)C(=O)O)NC(=O)[C@H](CO)NC(=O)[C@H](CO)NC(=O)[C@H](Cc2ccccc2)NC(=O)[C@H]([C@@H](C)O)NC(=O)[C@H](CCCCN)NC(=O)[C@H](Cc2c[nH]c3ccccc23)NC(=O)[C@H](Cc2ccccc2)NC(=O)[C@H](Cc2ccccc2)NC(=O)[C@H](CC(N)=O)NC(=O)[C@H](CCCNC(=N)N)NC1=O` [hCS-17], for which the EC50 at human SSTR5 [1] came to 0.2 nM; at human SSTR3, 1 nM.

For the origin of these results see patent publication US7074761B1, “Peptides and production and use thereof” (Takeda Chemical Ind., Ltd., priority 1996, dated 2006).
